Converted amounts (≈) assume the structure as drawn. The source made the active and inactive calls. The rule behind the calls is not given here.
Experiments:
Hep 3B2 = assay: Antiproliferative activity against human Hep3B cells assessed as reduction in cell viability incubated for 48 hrs by MTT assay; assay type: functional, cell-based
[1] = Solubility of the compound in water incubated for 24 hrs under stirring conditions by HPLC analysis; assay type: physicochemical
HepG2 [2] = assay: Induction of apoptosis in human HepG2 cells assessed as chromatin condensation and fragmentation at 2 to 8 uM incubated for 48 hrs by Hoechst 33258 staining based fluorescence microscopic analysis; assay type: functional, cell-based; conditions: dose 2-8 µM
SMMC-7721 [3] = assay: Induction of apoptosis in human SMMC-7721 cells assessed as chromatin condensation and fragmentation at 2 to 8 uM incubated for 48 hrs by Hoechst 33258 staining based fluorescence microscopic analysis; assay type: functional, cell-based; conditions: dose 2-8 µM
HepG2 [4] = assay: Induction of apoptosis in human HepG2 cells assessed as viable cells at 2 uM incubated for 48 hrs by AnnexinV-FITC/PI staining based flow cytometry (reference value: 91.1%); assay type: functional; conditions: read-out: Activity
HepG2 [5] = assay: Induction of apoptosis in human HepG2 cells assessed as late apoptotic cells at 2 uM incubated for 48 hrs by AnnexinV-FITC/PI staining based flow cytometry (reference value: 3.23%); assay type: functional
HepG2 [6] = assay: Induction of apoptosis in human HepG2 cells assessed as viable cells at 4 uM incubated for 48 hrs by AnnexinV-FITC/PI staining based flow cytometry (reference value: 91.1%); assay type: functional; conditions: read-out: Activity
HepG2 [7] = assay: Induction of apoptosis in human HepG2 cells assessed as late apoptotic cells at 4 uM incubated for 48 hrs by AnnexinV-FITC/PI staining based flow cytometry (reference value: 3.23%); assay type: functional
HepG2 [8] = assay: Induction of apoptosis in human HepG2 cells assessed as necrotic cells at 4 uM incubated for 48 hrs by AnnexinV-FITC/PI staining based flow cytometry (reference value: 2.22%); assay type: functional
HepG2 [9] = assay: Induction of apoptosis in human HepG2 cells assessed as viable cells at 8 uM incubated for 48 hrs by AnnexinV-FITC/PI staining based flow cytometry (reference value: 91.1%); assay type: functional; conditions: read-out: Activity
HepG2 [10] = assay: Induction of apoptosis in human HepG2 cells assessed as early apoptotic cells at 8 uM incubated for 48 hrs by AnnexinV-FITC/PI staining based flow cytometry (reference value: 3.41%); assay type: functional
HepG2 [11] = assay: Induction of apoptosis in human HepG2 cells assessed as late apoptotic cells at 8 uM incubated for 48 hrs by AnnexinV-FITC/PI staining based flow cytometry (reference value: 3.23%); assay type: functional
SMMC-7721 [12] = assay: Induction of apoptosis in human SMMC-7721 cells assessed as viable cells at 2 uM incubated for 48 hrs by AnnexinV-FITC/PI staining based flow cytometry (reference value: 85.1%); assay type: functional; conditions: read-out: Activity
SMMC-7721 [13] = assay: Induction of apoptosis in human SMMC-7721 cells assessed as necrotic cells at 2 uM incubated for 48 hrs by AnnexinV-FITC/PI staining based flow cytometry (reference value: 12.3%); assay type: functional
SMMC-7721 [14] = assay: Induction of apoptosis in human SMMC-7721 cells assessed as late apoptotic cells at 4 uM incubated for 48 hrs by AnnexinV-FITC/PI staining based flow cytometry (reference value: 1.51%); assay type: functional
SMMC-7721 [15] = assay: Induction of apoptosis in human SMMC-7721 cells assessed as necrotic cells at 4 uM incubated for 48 hrs by AnnexinV-FITC/PI staining based flow cytometry (reference value: 12.3%); assay type: functional
SMMC-7721 [16] = assay: Induction of apoptosis in human SMMC-7721 cells assessed as necrotic cells at 8 uM incubated for 48 hrs by AnnexinV-FITC/PI staining based flow cytometry (reference value: 12.3%); assay type: functional
HepG2 [17] = assay: Induction of cell cycle arrest in human HepG2 cells assessed as accumulation of cells at S phase at 2 uM incubated for 48 hrs by PI staining based flow cytometry (reference value: 18%); assay type: functional
HepG2 [18] = assay: Induction of cell cycle arrest in human HepG2 cells assessed as accumulation of cells at G2/M phase at 2 uM incubated for 48 hrs by PI staining based flow cytometry (reference value: 17.89%); assay type: functional
HepG2 [19] = assay: Induction of cell cycle arrest in human HepG2 cells assessed as accumulation of cells at G0/G1 phase at 4 uM incubated for 48 hrs by PI staining based flow cytometry (reference value: 64.11%); assay type: functional
HepG2 [20] = assay: Induction of cell cycle arrest in human HepG2 cells assessed as accumulation of cells at G0/G1 phase at 8 uM incubated for 48 hrs by PI staining based flow cytometry (reference value: 64.11%); assay type: functional
HepG2 [21] = assay: Induction of cell cycle arrest in human HepG2 cells assessed as accumulation of cells at S phase at 8 uM incubated for 48 hrs by PI staining based flow cytometry (reference value: 18%); assay type: functional
SMMC-7721 [22] = assay: Induction of cell cycle arrest in human SMMC-7721 cells assessed as accumulation of cells at G0/G1 phase at 2 uM incubated for 48 hrs by PI staining based flow cytometry (reference value: 59.57%); assay type: functional
SMMC-7721 [23] = assay: Induction of cell cycle arrest in human SMMC-7721 cells assessed as accumulation of cells at S phase at 2 uM incubated for 48 hrs by PI staining based flow cytometry (reference value: 24.94%); assay type: functional
SMMC-7721 [24] = assay: Induction of cell cycle arrest in human SMMC-7721 cells assessed as accumulation of cells at G0/G1 phase at 4 uM incubated for 48 hrs by PI staining based flow cytometry (reference value: 59.57%); assay type: functional
SMMC-7721 [25] = assay: Induction of cell cycle arrest in human SMMC-7721 cells assessed as accumulation of cells at S phase at 4 uM incubated for 48 hrs by PI staining based flow cytometry (reference value: 24.94%); assay type: functional
SMMC-7721 [26] = assay: Induction of cell cycle arrest in human SMMC-7721 cells assessed as accumulation of cells at G0/G1 phase at 8 uM incubated for 48 hrs by PI staining based flow cytometry (reference value: 59.57%); assay type: functional
SMMC-7721 [27] = assay: Induction of cell cycle arrest in human SMMC-7721 cells assessed as accumulation of cells at S phase at 8 uM incubated for 48 hrs by PI staining based flow cytometry (reference value: 24.94%); assay type: functional
SMMC-7721 [28] = assay: Induction of cell cycle arrest in human SMMC-7721 cells assessed as accumulation of cells at G2/M phase at 8 uM incubated for 48 hrs by PI staining based flow cytometry (reference value: 15.49%); assay type: functional
HepG2 [29] = assay: Induction of cell cycle arrest in human HepG2 cells assessed as downregulation of p34 protein expression at 2 to 8 uM incubated for 48 hrs by western blot analysis; assay type: functional, cell-based; conditions: dose 2-8 µM
HepG2 [30] = assay: Induction of cell cycle arrest in human HepG2 cells assessed as downregulation of CDK4 protein expression at 2 to 8 uM incubated for 48 hrs by western blot analysis; assay type: functional, cell-based; conditions: dose 2-8 µM
SMMC-7721 [31] = assay: Induction of cell cycle arrest in human SMMC-7721 cells assessed as upregulation of p21 protein expression at 2 to 8 uM incubated for 48 hrs by western blot analysis; assay type: functional, cell-based; conditions: dose 2-8 µM
SMMC-7721 [32] = assay: Induction of cell cycle arrest in human SMMC-7721 cells assessed as downregulation of Cdc2 protein expression at 2 to 8 uM incubated for 48 hrs by western blot analysis; assay type: functional, cell-based; conditions: dose 2-8 µM
HepG2 [33] = assay: Potency index, ratio of Sorafenib IC50 to test compound IC50 for antiproliferative activity against human HepG2 cells; assay type: functional

## COc1ccc(-c2oc3c(CC=C(C)C)c(OCCN4CCCC4)cc(O)c3c(=O)c2O[C@H]2O[C@H](C)[C@@H](O)[C@H](O)[C@@H]2O)cc1
Hep 3B2
  IC50: 3.9 µM
[1]
  solubility at 24 h: 11.8 mg/mL (≈ 19.3 mM)
HepG2 [2]
  Activity: Active
SMMC-7721 [3]
  Activity: Active
HepG2 [4]
  viability at 2 µM: 83.3%
HepG2 [5]
  Activity: 6.26%
HepG2 [6]
  viability at 4 µM: 86.2%
HepG2 [7]
  Activity: 5.47%
HepG2 [8]
  Activity: 3.21%
HepG2 [9]
  viability at 8 µM: 62.2%
HepG2 [10]
  Activity: 3.42%
HepG2 [11]
  Activity: 17.7%
SMMC-7721 [12]
  viability at 2 µM: 89.4%
SMMC-7721 [13]
  Activity: 2.96%
SMMC-7721 [14]
  Activity: 6.92%
SMMC-7721 [15]
  Activity: 0.956%
SMMC-7721 [16]
  Activity: 22.1%
HepG2 [17]
  Activity: 13.7%
HepG2 [18]
  Activity: 17.51%
HepG2 [19]
  Activity: 80.03%
HepG2 [20]
  Activity: 91.15%
HepG2 [21]
  Activity: 2.47%
SMMC-7721 [22]
  Activity: 63.01%
SMMC-7721 [23]
  Activity: 23.71%
SMMC-7721 [24]
  Activity: 65.57%
SMMC-7721 [25]
  Activity: 19.6%
SMMC-7721 [26]
  Activity: 78.65%
SMMC-7721 [27]
  Activity: 12.47%
SMMC-7721 [28]
  Activity: 8.88%
HepG2 [29]
  Activity: Active
HepG2 [30]
  Activity: Active
SMMC-7721 [31]
  Activity: Active
SMMC-7721 [32]
  Activity: Active
HepG2 [33]
  Ratio IC50: 2

Source: ChEMBL document CHEMBL5226390, “Synthesis and Structure-Activity Analysis of Icaritin Derivatives as Potential Tumor Growth Inhibitors of Hepatocellular Carcinoma Cells” (J Nat Prod, 2023)
